Several values for one entry are separate records, joined by “and”; a condition that tells them apart may be missing. Equal entries are not always repeated. Activity calls are given as the source filed them.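 The calls were made as follows: active = compounds giving half or more protection of infected cells from virus-caused growth loss, again on retest; inactive = the rest.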
Test system: CEM cells HIV-1 protection, formazan growth assay
Assay: NCI AIDS Antiviral Assay
Conditions: for IC50: measured here: growth of uninfected CEM cells
Method in brief: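 Screen of anti-HIV-1 activity in human CEM cells using a formazan-based growth measurement at five drug concentrations. Hits with 50% or greater protection were repeated, and confirmation required reproducible complete protection.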

| SMILES | EC50 [µM] | IC50 | outcome |
| --- | --- | --- | --- |
| C[N+](C)([O-])CCC=C1c2ccccc2CCc2ccccc21 | > 200 | 105 µM |  |
| CCOC(=O)C1=C(Nc2cccc3ccccc23)OCC1=O |  |  | inactive |
| CCc1cc2c(cc1CCCC(=O)O)CC1(Cc3ccc(C(=O)O)cc3C1)C2 (stereo not given) | > 200 | 155 µM |  |
| CC1=Nc2ccc(C)cc2N=C(C)C1 | > 200 | > 200 µM |  |
| CC(=O)Oc1ccc(O)c(O)c1C/C=C(\C)CC/C=C(\C)CC/C=C(\C)CCC=C(C)C |  |  | inactive |
| CCCN1C(=O)c2cc(=O)[nH]c(O)c2C1C (stereo not given) | > 117 | 81.3 µM |  |
| CC(=O)SCCC(NC(=S)Nc1ccccc1)P(=O)(Oc1ccccc1)Oc1ccccc1 (stereo not given) | > 200 | 49 µM |  |
| O=C(NCCCl)c1cc(C(F)(F)F)cc(C(F)(F)F)c1 |  |  | inactive |
| COC(=O)/C(=N/NC(N)=O)C(C(=O)OC)C(=O)C(=O)Nc1ccc(Cl)cc1 (stereo not given) |  |  | inactive |
| O=C1N(CCO)C2=CCCCC23c2[nH]c4ccccc4c2CCN13 (stereo not given) | > 200 | > 100 µM |  |
| CC(C)C(OC(=O)c1ccc(NCC2=CC(=O)C=CC2=O)cc1)C(C)C | > 20 | 9.12 µM |  |
| Cn1nc(NC(=O)c2cc(N)nn2C)cc1C(=O)Nc1ccc2cc(S(=O)(=O)O)cc(S(=O)(=O)O)c2c1 | > 200 | > 200 µM |  |
| Cc1cc2oc(=N)c(C#N)c(C)c2cc1C | > 200 | 43.7 µM |  |
| CCOC(=O)C(=Cc1ccco1)C(=O)OCC | > 151 | 85.1 µM |  |
| CCN(CC)C(=O)C1C[C@@H](O)CN1C(=O)c1ccc(OC)c(OC)c1 (stereo not given in full) | > 200 | > 200 µM |  |
| CC1N(C)C(=O)OC12CCN(CCCC(=O)c1ccc(F)cc1)CC2 (stereo not given) | > 200 | > 200 µM |  |
| CCCCCCCCCCCCOC(=S)NC |  |  | inactive |
| c1ccc(-c2c[se]nn2)cc1 | > 174 | 93.3 µM |  |
| [N-]=[N+]=Nc1c(Cc2ccccc2)c(Cl)nc2ccccc12 | > 200 | 19.1 µM |  |
| COc1cc(N=Nc2ccccc2)cc(/C=N/NC(N)=S)c1[O-].[CH2-]/[N+](=C\c1cc(N=Nc2ccccc2)cc(OC)c1[O-])NC(N)=S.[O]=[Mo+2]=[O].[O]=[Mo]=[O] | > 38.9 | 5.25 µM |  |
| O=C1C2c3[nH]c4ccccc4c3C3CCCC3C2C(=O)N1c1ccccc1 (stereo not given) |  |  | inactive |

| SMILES | EC50 [µM] | IC50 | outcome |
| --- | --- | --- | --- |
| O=[N+]([O-])c1ccc(OC2CC3C4C=CC3C2C4)c([N+](=O)[O-])c1 (stereo not given) | > 200 | > 200 µM |  |
| c1ccc(CCN(Cc2nc3ccccc3[nH]2)Cc2nc3ccccc3[nH]2)cc1 | > 200 | 10.5 µM |  |
| O=c1ccn(/C=C\c2nc3ccccc3[nH]c2=O)c(=S)[nH]1 | > 200 | > 200 µM |  |
| Cc1n(CC(C)C)c2c([n+]1CC(=O)c1ccc([N+](=O)[O-])cc1)C(=O)c1ccccc1C2=O | > 4.9 | 0.0288 µM |  |
| NC1=NS(=O)(=O)Nc2nc(-c3ccc(Cl)cc3)c(-c3ccc(Cl)cc3)nc21 | > 61.7 | > 61.7 µM |  |
| CCCCCCC(C)S(=O)(=O)O (stereo not given) | > 200 | > 200 µM |  |
| CCCCCCCCC1=C(OC)C(=O)c2ccc(Cl)nc2C1=O |  |  | inactive |
| CCOC(=O)CCC(NC(=O)N1CCN(c2c(C)nc(C)[nH]c2=O)CC1)C(=O)OCC (stereo not given) | > 200 | > 200 µM |  |
| COc1ccc2cc3n(c2c1)CCc1cc(OC)c(OC)cc1-3 |  |  | inactive |
| CCOC(=O)c1c(-c2ccc(OC)c(O)c2)c(C#N)c(=S)n(C2OC(COC(C)=O)C(OC(C)=O)C(OC(C)=O)C2OC(C)=O)c1-c1ccccc1 (stereo not given) | > 200 | 102 µM and 56.2 µM |  |
| CC(C)c1ccccc1SCc1cc(=O)cc(CSc2ccccc2C(C)C)o1 | > 200 | 11.7 µM |  |
| CC(C)(C)OC(=O)N[C@@H](Cc1ccccc1)CN1CCCC1C(=O)O (stereo not given in full) | > 3390 | 2570 µM |  |
| O=C1C=C(C23CC4CC(CC(C4)C2)C3)N2CCCc3cccc(c32)N1 | > 100 | > 100 µM |  |
| Nc1nc(-c2ccccc2)cc(-c2ccc(F)cc2)c1-c1ccc(Cl)cc1 | > 200 | 132 µM |  |
| Cc1ccccc1NC(=O)CC(=O)NNC(Sc1ccccc1)c1cc(N=Nc2ccc(Br)cc2)ccc1O (stereo not given) | > 100 | 1.23 µM |  |
| C[C@]12CC[C@@H]3c4cc(Br)c(O)c(Br)c4CC[C@H]3[C@@H]1CCC2=O | > 200 | 33.1 µM |  |
| CCN(CC)CCCCC1CCN(CC(=O)N2CC(C)C(=O)Nc3ccccc32)CC1 (stereo not given) | > 251 | > 251 µM |  |
| CC(C)(C)OC(=O)c1ccc(NCC2=CC(=O)C=CC2=O)cc1 | > 200 | 10.2 µM |  |
| Cc1cc(NC(=O)c2ccc(NC(=O)c3ccccc3)cc2)ccc1N=Nc1ccc(N=Nc2ccc3c(O)cc(S(=O)(=O)O)cc3c2)c2cc(S(=O)(=O)O)ccc12 | 6.17 | 50.1 µM |  |
| CC(=O)Oc1ccc(S(=O)(=O)c2ccc(OC(C)=O)cc2)cc1 | > 200 | 9.12 µM |  |
| Cc1c(C(=O)CSc2nc3ccc([N+](=O)[O-])cc3[nH]2)c(=O)n(-c2ccccc2)n1C | > 17 | > 17 µM |  |

| SMILES | EC50 [µM] | IC50 | outcome |
| --- | --- | --- | --- |
| C=C(c1cc(C(=O)OC)c(OC)c(Br)c1C)c1cc(C(=O)OC)c(OC)c(Br)c1C | > 200 | 77.6 µM |  |
| COc1cc(CC(C)NC(C)=O)cc(OC)c1 (stereo not given) | > 200 | > 200 µM |  |
| O=C1CCCCCCCCCCC1Sc1ccccc1 (stereo not given) | > 12.3 | > 12.3 µM |  |
| COc1cc(NS(C)(=O)=O)ccc1NCc1c2ccccc2nc2ccccc12 |  |  | inactive |
| O=Nn1cc(-c2cc3ccccc3n2N=O)c2ccccc21 | > 200 | 97.7 µM |  |
| O=c1[nH]nc(Cc2ccc(Cl)cc2)n1Nc1ccccc1 | > 200 | > 200 µM |  |
| CCOC(=O)c1sc(SC)nc1NC(=O)c1ccc([N+](=O)[O-])cc1 | > 200 | > 200 µM |  |
| NCCN.NCCN.O=C([O-])C(=O)[O-].[Cl-].[Co+3] |  |  | inactive |
| CC(C)COC(=O)N1N=NC2C3OC(CC3=O)C21 (stereo not given) | > 977 | > 977 µM |  |
| N#C/C(=C\N1CCNC1=S)c1nc2ccccc2s1 | > 200 | > 200 µM |  |
| Cc1cc(C)c(S(=O)(=O)Sc2nnnn2C)c(C)c1 | > 603 | 126 µM |  |
| Fc1cccc(Cl)c1C1SCc2nc3ccccc3n21 (stereo not given) | 0.0479 | 3.8 µM |  |
| Cc1ccnc2c1NC(=O)c1cccnc1N2C1CC1 | 0.0437 | 195 µM |  |
| COC1N(C2CC(N=[N+]=[N-])C(CO)O2)C(=O)NC(=O)C1(C)Cl (stereo not given) | 6.61 | 891 µM |  |
| COc1cccc2ccc3c(c12)C(=O)OC31CCc2c(C)cccc21 (stereo not given) |  |  | inactive |
| CCC[CH2][Sn]1([CH2]CCC)[O]CC(CN(C)Cc2ccccc2)[O]1 (stereo not given) | > 20.9 | 0.138 µM |  |
| CC1=C([N+](=O)[O-])[C@@H](N2CCOCC2)[C@](C)(N2CCOCC2)S1 |  |  | inactive |
| Oc1ccc(C2Oc3cc(O)c4cc3C2c2c3c(cc5c2[C@@H](c2cc(O)cc(O)c2)C(c2ccc(O)cc2)O5)O[C@@H](c2ccc(O)cc2)C3c2cc(O)cc3c2C4[C@H](c2ccc(O)cc2)O3)cc1 (stereo not given in full) | > 15.8 | > 15.8 µM |  |
| O=C1[C@@H]2C(c3ccccc3F)=NO[C@@H]2C(=O)N1c1ccc(Cc2ccc(N3C(=O)[C@H]4C(c5ccccc5F)=NO[C@H]4C3=O)cc2)cc1 | > 8.32 | > 8.32 µM |  |
| O=C1c2ccccc2C(=O)c2c1ccc1c3ccccc3n(-c3ccccc3)c21 | > 50.1 | 0.871 µM |  |
| Cc1ccc(S(=O)(=O)C(CC(NC=O)S(=O)(=O)c2ccc(C)cc2)NC=O)cc1 (stereo not given) |  |  | inactive |

| SMILES | EC50 [µM] | IC50 | outcome |
| --- | --- | --- | --- |
| CC(=O)OC1C(C)(O)[C@@H]2CC[C@H]3C4(C)CCCC(C)(C)[C@H]4CC[C@]13C2 (stereo not given in full) | > 50.1 | > 50.1 µM |  |
| OC(Cc1ccc(Br)cc1)CN1CCC(c2ccccc2)CC1 (stereo not given) | > 229 | 17.8 µM and 9.55 µM |  |
| CCOC(=O)/C(=C\c1ccnc2ccccc12)P(=O)(OCC)OCC | > 200 | 3.31 µM |  |
| Cc1cc(NC(=S)NNC(=O)Cn2nnc(-c3cccc(Cl)c3Cl)n2)ccc1Br | > 200 | 141 µM |  |
| COc1cc(OC)c(C(=O)CC(=O)c2cc(OC)c(OC)c(OC)c2OC)cc1OC | > 575 | 479 µM |  |
| CN(C)c1ccc(/C=C/C(=O)C(C)(C)C)cc1 |  |  | inactive |
| COc1cc2c(nn1)CCCC2 |  |  | inactive |
| CC(C)OP(=O)(CCCCCCCCC/C=C/c1ccc2c(c1)OCCOCCOCCOCCO2)OC(C)C | > 200 | 12.3 µM |  |
| CC(=O)Nn1cnc(C(=N)C#N)c1N | > 200 | > 200 µM |  |
| CCOC(=O)c1cnn2c(SC)ncnc12 | > 282 | 67.6 µM |  |
| CCC1(c2ccccc2)C(=O)N=C(c2ccccc2)N1CCc1ccccc1 (stereo not given) | > 200 | > 200 µM |  |
| Clc1cc2nc[nH]c2cc1Cl | > 269 | 141 µM |  |
| CC(=O)OC1C(OC(C)=O)[C@@]2(C)C(C(O)[C@@H]3C2C(C)C=C2OC(=O)[C@@](C)(O)[C@@]23C)[C@H]2C1[C@]1(C)C(C[C@@H]3O[C@@H]3C1OC(C)=O)C(=O)[C@@H]2O (stereo not given in full) |  |  | inactive |
| CCCCCCCCCCCCOC1C(COCCN2CCCC2)OC2OC(C)(C)OC21 (stereo not given) | > 200 | 3.02 µM |  |
| CCOC(=O)c1ccc(C(O)CC(=O)OC(C)(C)C)[nH]1 (stereo not given) | > 200 | 38 µM |  |
| Cc1ccnc(NS(=O)(=O)c2ccc(NC(=O)Nc3ccc(Cl)c(C(F)(F)F)c3)cc2)n1 |  |  | inactive |
| O=S(=O)(F)c1cccc(Cl)c1C[P+](c1ccccc1)(c1ccccc1)c1ccccc1 | > 200 | 25.7 µM |  |
| O=C(C=P(c1ccccc1)(c1ccccc1)c1ccccc1)CC(=S)CC(=O)C=P(c1ccccc1)(c1ccccc1)c1ccccc1 |  |  | inactive |
| COC1/C=C/OC2(C)Oc3c(C)c(O)c4c(O)c(c(/C=N/N5CCC(N6CCCCC6)CC5)c(O)c4c3C2=O)NC(=O)C(C)=C/C=C/C(C)C(O)C(C)C(O)C(C)C(OC(C)=O)C1C (stereo not given) | > 75.9 | > 75.9 µM |  |
| COc1c(Cl)cc(C(=CCC[C@H]2CC[C@@]3(C)C(CC[C@@H]4C3CC[C@]3(C)C(C(C)CCCC(C)C)CCC43)C2)c2cc(Cl)c(OC)c(C(=O)O)c2)cc1C(=O)O (stereo not given in full) | 12 | 302 µM |  |
| COc1ccc(N2C(=O)CC(c3c[nH]c4ncccc34)C2=O)cc1 (stereo not given) | > 200 | 42.7 µM |  |

Reference: PubChem BioAssay AID179 (DTP/NCI, 2004)
